Experimental data published in patent US20230295152A1 (SENDA BIOSCIENCES, INC., priority 2019, published 2023).
Converted amounts (≈) assume the structure as drawn. Where two headings read alike, the source gives them in different places.

Legend:
AHR = biological target: T1, AHR (Homo sapiens, UniProt P35869); assay: DRE-Luciferase Reporter Assay, HepG2 AhR-Lucia reporter cells; assay type: cell-based; conditions: with AHR activating ligand at EC50, read-out: HepG2-Luc IC50
T1 construct: other cell line with a DRE-luciferase reporter stably transfected; endogenous in cells; host or cells: HepG2 AhR-Lucia reporter cells
T1 sequence (P35869 11-848): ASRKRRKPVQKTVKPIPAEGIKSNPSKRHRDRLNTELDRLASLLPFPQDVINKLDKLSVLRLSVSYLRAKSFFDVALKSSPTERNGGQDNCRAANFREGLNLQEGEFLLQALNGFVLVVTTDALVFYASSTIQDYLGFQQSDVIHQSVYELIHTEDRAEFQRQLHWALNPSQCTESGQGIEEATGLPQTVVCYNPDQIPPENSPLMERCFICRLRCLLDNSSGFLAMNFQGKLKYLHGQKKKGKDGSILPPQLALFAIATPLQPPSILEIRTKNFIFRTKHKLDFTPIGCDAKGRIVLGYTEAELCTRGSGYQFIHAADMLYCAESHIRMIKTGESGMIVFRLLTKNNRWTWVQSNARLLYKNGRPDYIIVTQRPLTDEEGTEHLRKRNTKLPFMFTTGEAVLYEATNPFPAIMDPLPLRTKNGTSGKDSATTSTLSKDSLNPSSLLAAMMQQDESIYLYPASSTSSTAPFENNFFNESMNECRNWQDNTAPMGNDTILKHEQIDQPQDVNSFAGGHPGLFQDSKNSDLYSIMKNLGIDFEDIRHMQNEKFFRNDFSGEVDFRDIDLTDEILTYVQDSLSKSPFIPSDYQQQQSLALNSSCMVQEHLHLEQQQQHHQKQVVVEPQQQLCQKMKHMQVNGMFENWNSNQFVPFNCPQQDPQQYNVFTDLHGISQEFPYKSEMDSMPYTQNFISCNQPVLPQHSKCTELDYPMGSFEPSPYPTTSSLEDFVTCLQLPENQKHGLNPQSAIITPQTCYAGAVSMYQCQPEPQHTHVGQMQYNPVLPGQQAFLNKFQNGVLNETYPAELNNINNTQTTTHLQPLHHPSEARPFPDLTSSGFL
Summary of the method: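 DRE-luciferase reporter cells (e.g. HepG2 AhR-Lucia, 20000 cells) treated with antagonist log dilutions from 100 uM, then an AHR agonist (e.g. TCDD, kynurenine, ITE, FICZ) at its EC50 added after 1 hr. Secreted luciferase measured after 24 or 48 h (QUANTI-Luc); IC50 = concentration halving luciferase activity.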

[1] = Solubility Determination Assay in PBS pH 1.6 and pH 7.4; assay type: physicochemical; conditions: PBS buffer, aqueous buffer, kinetic from dmso stock
Procedure: The stock solutions of test compounds and control compound progesterone were prepared in DMSO at the concentrations of 10 mM. 15 μL of stock solution (10 mM) of each sample was placed in order into their proper 96-well rack. 485 μL of PBS pH 1.6 and pH 7.4 were added into each vial of the cap-less Solubility Sample plate. The assay was performed in singlet. One stir stick was added to each vial and then the vial was sealed using a molded PTFE/Silicone plug. […] After completion of the 2 hours, plugs were removed and the stir sticks were removed using a big magnet. The samples from the Solubility Sample plate were transferred into the filter plate. Using the Vacuum Manifold, all the samples were filtered. An aliquot of 5 μL was taken from the filtrate followed by addition of 495 μL of a mixture of H2O and acetonitrile containing internal standard (1:1). A certain proportion of ultrapure water was used to dilute the diluent according to the peak shape. The dilution factor was changed according to the solubility values and the LC-MS signal response.
From the 10 mM DMSO STD plate, 6 μL was transferred into the remaining empty plate, and then 194 μL of DMSO were added to that plate to have a STD concentration of 300 μM. From the 300 μM DMSO STD plate, 5 μL were transferred into the remaining empty plate, and then 495 μL of a mixture of H2O and acetonitrile containing internal standard (1:1) were added to that plate to have a final STD concentration of 3 μM. A certain proportion of ultrapure water was used to dilute the diluent according to the peak shape. The concentrations of the standard samples were changed according to the LC-MS signal response.
The plate was placed into the well plate autosampler. The samples were evaluated by LC-MS/MS analysis.
All calculations were carried out using Microsoft Excel.
The filtrate was analyzed and quantified against a standard of known concentration using LC coupled with mass spectral peak identification and quantitation. Solubility values of the test compound and control compound were calculated as follows: […]
Any value of the compounds that was not within the specified limits was rejected and the experiment was repeated.
“+++” indicates a solubility value equal to or greater than 1 μM, “++” indicates a solubility value between 0.1 and 1 μM, and “+” indicates a solubility value less than 0.1 μM.

[2] = Liver Microsome Stability Assay, human; assay type: in vitro ADME; conditions: human liver microsomes
Procedure: Two separate experiments were performed as follows.
With Cofactors (NADPH): 25 μL of 10 mM NADPH was added to the incubations. The final concentrations of microsomes and NADPH were 0.5 mg/mL and 1 mM, respectively. The final concentration of microsomes was 0.5 mg/mL. The mixture was pre-warmed at 37° C. for 10 minutes. The reaction was started with the addition of 2.5 μL of 100 μM control compound or test compound solutions. Verapamil was used as positive control in this study. The final concentration of test compound or control compound was 1 μM. The incubation solution was incubated in water batch at 37° C. Aliquots of 25 μL were taken from the reaction solution at 0.5, 5, 15, 30 and 60 minutes. The reaction was stopped by the addition of 5 volumes of cold acetonitrile with IS (200 nM caffeine and 100 nM tolbutamide). Samples were centrifuged at 3, 220 g for 40 minutes. Aliquot of 100 μL of the supernatant was mixed with 100 μL of ultra-pure H2O and then used for LC-MS/MS analysis.
Data Analysis: All calculations were carried out using Microsoft Excel. Peak areas were determined from extracted ion chromatograms. The slope value, k, was determined by linear regression of the natural logarithm of the remaining percentage of the parent drug vs. incubation time curve.
The in vitro half-life (in vitro t1/2) was determined from the slope value:
Conversion of the in vitro t1/2 (min) into the in vitro intrinsic clearance (in vitro CLint, in μL/min/mg protein) was done using the following equation (mean of duplicate determinations): […]
The calculations of Scaled-up CLint(mL/min/kg), Predicted CLH (mL/min/kg) and EH were done using the following equation:
Scaled-up CLint=(0.693/t1/2)×(1/(microsomal protein concentration(0.5 mg/mL)))×Scaling Factors;Predicted CLH=(QH×Scaled-up CLint×fub)/(QH+Scaled-up CLint×fub);EH=Predicted CLH/QH
where QH is the hepatic blood flow (mL/min/kg) (Table 32), • fub is the fraction of unbound drug in plasma which is assumed to be 1.
“+++” indicates a Clint value less than 10 mL/min/Kg, […] indicates a Clint between 10 and 20 mL/min/Kg, and “+” indicates a Clint above 20 mL/min/Kg.

[3] = PBS pH 1.6, 25° C., read-out: Aq. Solubility at pH = 1.6
[4] = PBS pH 7.4, 25° C., read-out: Aq. Solubility at pH = 7.4

SMILES: Cc1ccc(-c2cc3c(=O)n([C@@H](C)CO)cnc3c(-c3cccc(F)c3)n2)cc1 [Compound 48, 8-(3-fluorophenyl)-3-[(1S)-2-hydroxy-1-methyl-ethyl]-6-(p-tolyl)pyrido[3,4-d]pyrimidin-4-one]
- IC50 (AHR): < 100 nM
- solubility at 2 h [1, 3]: ≥ 1 µM
- solubility at 2 h [1, 4]: 0.1 to 1 µM (≈ 0.0389 to 0.389 µg/mL)
- Human liver microsome clearance [2]: +++ (“+++” indicates a Clint value less than 10 mL/min/Kg)

SMILES: C[C@H](n1cnc2c(-c3cccnc3)nc(-c3ccc(Cl)cc3)cc2c1=O)C(C)(C)O [Compound 36]
- IC50 (AHR): < 100 nM
- solubility at 2 h [1, 3]: ≥ 1 µM
- solubility at 2 h [1, 4]: < 0.1 µM
- Human liver microsome clearance [2]: +++ (“+++” indicates a Clint value less than 10 mL/min/Kg)
